Measurements from patent US11254686B1 (Corvus Pharmaceuticals, Inc., priority 2017, dated 2022).

How the values were obtained:
Type in all cases: biochemical
adenosine A1 receptor = adenosine A1 receptor (Homo sapiens (Human), UniProt P30542); assay: Adenosine receptor activity assay (Table 1), A1 cAMP
Procedure: (§1) Table 1. Compounds (e.g., Adenosine Receptor modulators) and activity assay results. The legend is as follows: A=<10 nM; B=10-50 nM; C=50-100 nM; D=100-500; and E=>500 nM. The ratio corresponds to the A2A activity to the A2B activity; or A2A/A2B.

adenosine A3 receptor = adenosine A3 receptor (Homo sapiens (Human), UniProt P0DMS8); assay: Adenosine receptor activity assay (Table 1), A3 cAMP
Procedure: as §1

adenosine A2A receptor = adenosine A2A receptor (Homo sapiens (Human), UniProt P29274); assay: Adenosine receptor activity assay (Table 1), A2A activity; conditions: read-out: Ave A2A cAMP IC50
adenosine A2B receptor = adenosine A2B receptor (Homo sapiens (Human), UniProt P29275); assay: Adenosine receptor activity assay (Table 1), A2B activity; conditions: for Ratio: A2A activity to the A2B activity, A2A/A2B; for IC50: read-out: Ave A2B cAMP IC50
Sequence of adenosine A2B receptor (P29275 whole entry): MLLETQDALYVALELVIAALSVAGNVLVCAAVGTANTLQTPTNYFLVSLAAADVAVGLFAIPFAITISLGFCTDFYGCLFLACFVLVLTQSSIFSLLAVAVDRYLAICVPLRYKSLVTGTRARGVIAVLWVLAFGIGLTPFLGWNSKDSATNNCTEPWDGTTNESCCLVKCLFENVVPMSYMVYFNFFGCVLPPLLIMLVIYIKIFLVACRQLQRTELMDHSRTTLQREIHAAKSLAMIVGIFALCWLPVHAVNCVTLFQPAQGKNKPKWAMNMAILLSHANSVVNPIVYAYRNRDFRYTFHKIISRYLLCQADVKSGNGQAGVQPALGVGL

Sequence of adenosine A3 receptor (P0DMS8 whole entry): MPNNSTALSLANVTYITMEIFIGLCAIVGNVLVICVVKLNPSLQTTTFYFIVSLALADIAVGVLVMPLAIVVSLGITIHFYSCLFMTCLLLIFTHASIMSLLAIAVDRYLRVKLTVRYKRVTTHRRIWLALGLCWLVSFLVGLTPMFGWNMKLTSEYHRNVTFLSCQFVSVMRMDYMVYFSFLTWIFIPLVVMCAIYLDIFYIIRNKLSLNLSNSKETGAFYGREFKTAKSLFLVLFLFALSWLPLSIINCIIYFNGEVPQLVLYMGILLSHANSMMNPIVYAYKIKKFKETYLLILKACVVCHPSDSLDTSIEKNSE
Sequence of adenosine A2A receptor (P29274 whole entry): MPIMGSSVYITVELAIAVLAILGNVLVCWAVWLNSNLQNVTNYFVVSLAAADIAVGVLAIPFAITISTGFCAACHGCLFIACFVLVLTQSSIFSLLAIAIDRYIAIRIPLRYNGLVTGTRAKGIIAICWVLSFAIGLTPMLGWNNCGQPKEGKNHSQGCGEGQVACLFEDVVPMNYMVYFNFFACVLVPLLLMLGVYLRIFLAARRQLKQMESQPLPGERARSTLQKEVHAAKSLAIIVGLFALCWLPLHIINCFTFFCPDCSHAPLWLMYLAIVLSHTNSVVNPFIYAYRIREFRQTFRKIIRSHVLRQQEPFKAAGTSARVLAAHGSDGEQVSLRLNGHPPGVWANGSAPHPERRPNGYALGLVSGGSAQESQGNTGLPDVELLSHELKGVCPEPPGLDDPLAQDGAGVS
Sequence of adenosine A1 receptor (P30542 whole entry): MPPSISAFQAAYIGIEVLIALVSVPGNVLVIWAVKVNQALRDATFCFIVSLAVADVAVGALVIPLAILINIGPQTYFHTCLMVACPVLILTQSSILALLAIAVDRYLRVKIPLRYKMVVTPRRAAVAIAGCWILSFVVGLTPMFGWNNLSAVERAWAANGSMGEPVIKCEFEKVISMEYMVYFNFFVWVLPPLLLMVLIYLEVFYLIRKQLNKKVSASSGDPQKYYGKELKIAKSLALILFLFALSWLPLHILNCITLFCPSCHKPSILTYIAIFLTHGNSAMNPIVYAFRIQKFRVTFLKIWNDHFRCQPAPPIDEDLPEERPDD

| Compound | IC50 (adenosine A1 receptor) [nM] | IC50 (adenosine A3 receptor) [nM] | IC50 (adenosine A2A receptor) [nM] | Ratio (adenosine A2B receptor) | IC50 (adenosine A2B receptor) [nM] |
| --- | --- | --- | --- | --- | --- |
| C[C@H](Nc1nc(C(=O)N[C@@H]2CC[C@H](O)C2)c2sccc2n1)c1cncc(F)c1 [Example Z402, 2-(((S)-1-(5-Fluoropyridin-3-yl)ethyl)amino)-N-((1R,3S)-3-hydroxycyclopentyl)thieno[3,2-d]pyrimidine-4-carboxamide] | 100 to 500 | 50 to 100 | 50 to 100 | 38.37 | < 10 |
| COC[C@@H](Nc1nc(C(=O)NCCc2ccc(O)cc2)c2sccc2n1)c1cccnc1 [Example Z403, (S)—N-(4-Hydroxyphenethyl)-2-((2-methoxy-1-(pyridin-3-yl)ethyl)amino)thieno[3,2-d]pyrimidine-4-carboxamide] | > 500 | > 500 | > 500 | 42.24 | 10 to 50 |
| C[C@H](Nc1nc(C(=O)N2CC(CNC(=O)OC(C)(C)C)C2)c2sccc2n1)c1cncc(F)c1 [Example Z404, tert-Butyl (S)-((1-(2-((1-(5-fluoropyridin-3-yl)ethyl)amino)thieno[3,2-d]pyrimidine-4-carbonyl)azetidin-3-yl)methyl)carbamate] | > 500 | > 500 | 10 to 50 | 5.80 | < 10 |
| C[C@H](Nc1nc(C(=O)NCCc2ccc(O)cc2)c2sccc2n1)c1ccnc(F)c1 [Example Z405, (S)-2-((1-(2-Fluoropyridin-4-yl)ethyl)amino)-N-(4-hydroxyphenethyl)thieno[3,2-d]pyrimidine-4-carboxamide] | > 500 | > 500 | 100 to 500 | 28.50 | < 10 |
| C[C@H](Nc1nc(C(=O)NCCc2cccc(O)c2)c2sccc2n1)c1cncc(F)c1 [Example Z409, (S)-2-((1-(5-Fluoropyridin-3-yl)ethyl)amino)-N-(3-hydroxyphenethyl)thieno[3,2-d]pyrimidine-4-carboxamide] | 50 to 100 | 50 to 100 | 10 to 50 | 5.96 | < 10 |
| C[C@H](Nc1nc(C(=O)NCCc2ccc(O)cc2)c2sccc2n1)c1ccccn1 [Example Z410, (S)—N-(4-Hydroxyphenethyl)-2-((1-(pyridin-2-yl)ethyl)amino)thieno[3,2-d]pyrimidine-4-carboxamide] | > 500 | > 500 | 100 to 500 | 69.41 | < 10 |
| COc1cccc(CCNC(=O)c2nc(N[C@@H](C)c3cncc(F)c3)nc3ccsc23)n1 [Example Z411, (S)-2-((1-(5-Fluoropyridin-3-yl)ethyl)amino)-N-(2-(6-methoxypyridin-2-yl)ethyl)thieno[3,2-d]pyrimidine-4-carboxamide] | > 500 | > 500 | 100 to 500 | 19.23 | < 10 |
| Cc1cc2nc(N[C@@H](C)c3cncc(F)c3)nc(C(=O)N3CC[C@@H](N)C3)c2s1 [Example Z413, ((R)-3-Aminopyrrolidin-1-yl)(2-(((S)-1-(5-fluoropyridin-3-yl)ethyl)amino)-6-methylthieno[3,2-d]pyrimidin-4-yl)methanone] | > 500 | > 500 | > 500 | 126.84 | 10 to 50 |
| Cc1csc2c(C(=O)N3CCCC3)nc(N[C@@H](C)c3cncc(F)c3)nc12 [Example Z414, (S)-(2-((1-(5-Fluoropyridin-3-yl)ethyl)amino)-7-methylthieno[3,2-d]pyrimidin-4-yl)(pyrrolidin-1-yl)methanone] | 50 to 100 | 50 to 100 | 10 to 50 | 19.11 | < 10 |
| Cc1csc2c(C(=O)N3CC[C@H](O)C3)nc(N[C@@H](C)c3cncc(F)c3)nc12 [Example Z416, (2-(((S)-1-(5-Fluoropyridin-3-yl)ethyl)amino)-7-methylthieno[3,2-d]pyrimidin-4-yl)((S)-3-hydroxypyrrolidin-1-yl)methanone] | > 500 | > 500 | 100 to 500 | 52.64 | < 10 |
| CNC1CN(C(=O)c2nc(N[C@@H](C)c3cncc(F)c3)nc3cc(C)sc23)C1 [Example Z418, (S)-(2-((1-(5-Fluoropyridin-3-yl)ethyl)amino)-6-methylthieno[3,2-d]pyrimidin-4-yl)(3-(methylamino)azetidin-1-yl)methanone] | > 500 | > 500 | > 500 | 207.31 | 10 to 50 |
| COc1ccc(CCCNC(=O)c2nc(N[C@@H](C)c3cncc(F)c3)nc3ccsc23)cc1 [Example Z422, (S)-2-((1-(5-Fluoropyridin-3-yl)ethyl)amino)-N-(3-(4-methoxyphenyl)propyl)thieno[3,2-d]pyrimidine-4-carboxamide] | > 500 | > 500 | 100 to 500 | 7.52 | 10 to 50 |
| C[C@H](Nc1nc(C(=O)NCCc2cccc(O)c2)c2sccc2n1)c1cccnc1 [Example Z427, (S)—N-(3-Hydroxyphenethyl)-2-((1-(pyridin-3-yl)ethyl)amino)thieno[3,2-d]pyrimidine-4-carboxamide] | 100 to 500 | 100 to 500 | 100 to 500 | 5.03 | 50 to 100 |
| C[C@H](Nc1nc(C(=O)NCCc2cccc(O)c2)c2sccc2n1)c1ccccn1 [Example Z428, (S)—N-(3-Hydroxyphenethyl)-2-((1-(pyridin-2-yl)ethyl)amino)thieno[3,2-d]pyrimidine-4-carboxamide] | > 500 | > 500 | 100 to 500 | 10.94 | 10 to 50 |
| Cc1cc2nc(N[C@@H](C)c3cncc(F)c3)nc(C(=O)N3CC(NC(=O)OC(C)(C)C)C3)c2s1 [Example Z429, tert-Butyl (S)-(1-(2-((1-(5-Fluoropyridin-3-yl)ethyl)amino)-6-methylthieno[3,2-d]pyrimidine-4-carbonyl)azetidin-3-yl)carbamate] | 50 to 100 | 10 to 50 | 10 to 50 | 4.15 | < 10 |
| COc1ccc([C@H](C)Nc2nc(C(=O)NCc3cccnc3)c3sccc3n2)cc1 [Example Z435, (S)-2-((1-(4-Methoxyphenyl)ethyl)amino)-N-(pyridin-3-ylmethyl)thieno[3,2-d]pyrimidine-4-carboxamide] | 100 to 500 | 50 to 100 | 10 to 50 | 0.04 | 100 to 500 |
| Cc1csc2c(C(=O)NCc3ccccn3)nc(N[C@@H](C)c3ccccn3)nc12 [Example Z451, (S)-7-Methyl-2-((1-(pyridin-2-yl)ethyl)amino)-N-(pyridin-2-ylmethyl)thieno[3,2-d]pyrimidine-4-carboxamide] | 50 to 100 | 10 to 50 | 10 to 50 | 0.35 | 10 to 50 |
| Cc1csc2c(C(=O)NC3CCC3)nc(N[C@@H](C)c3ccccn3)nc12 [Example Z456, (S)—N-Cyclobutyl-7-methyl-2-((1-(pyridin-2-yl)ethyl)amino)thieno[3,2-d]pyrimidine-4-carboxamide] | > 500 | 50 to 100 | 10 to 50 | 2.47 | < 10 |
| Cc1csc2c(C(=O)NCc3cccnc3)nc(N[C@@H](C)c3ccccn3)nc12 [Example Z458, (S)-7-Methyl-2-((1-(pyridin-2-yl)ethyl)amino)-N-(pyridin-3-ylmethyl)thieno[3,2-d]pyrimidine-4-carboxamide] | > 500 | > 500 | 10 to 50 | 0.72 | 10 to 50 |
| Cc1csc2c(C(=O)N3CCCC3)nc(N[C@@H](C)c3ccccn3)nc12 [Example Z459, (S)-(7-methyl-2-((1-(pyridin-2-yl)ethyl)amino)thieno[3,2-d]pyrimidin-4-yl)(pyrrolidin-1-yl)methanone] | > 500 | > 500 | 10 to 50 | 2.40 | 10 to 50 |
| Cc1cc2nc(N[C@@H](C)c3ccccn3)nc(C(=O)NCc3ccccn3)c2s1 [Example Z461, (S)-6-Methyl-2-((1-(pyridin-2-yl)ethyl)amino)-N-(pyridin-2-ylmethyl)thieno[3,2-d]pyrimidine-4-carboxamide] | > 500 | 50 to 100 | 10 to 50 | 3.15 | 10 to 50 |
| Cc1cc2nc(N[C@@H](C)c3ccccn3)nc(C(=O)NCc3cccnc3)c2s1 [Example Z462, (S)-6-Methyl-2-((1-(pyridin-2-yl)ethyl)amino)-N-(pyridin-3-ylmethyl)thieno[3,2-d]pyrimidine-4-carboxamide] | > 500 | 50 to 100 | 50 to 100 | 2.70 | 10 to 50 |
| CC(=O)Nc1ccc(CCNC(=O)c2nc(N[C@@H](C)c3cccnc3)nc3cc(C)sc23)cc1 [Example Z497, (S)—N-(4-Acetamidophenethyl)-6-methyl-2-((1-(pyridin-3-yl)ethyl)amino)thieno[3,2-d]pyrimidine-4-carboxamide] | – | 50 to 100 | – | – | 10 to 50 |
| Azetidin-1-yl(2-(((6-methoxypyridin-3-yl)methyl)amino)thieno[3,2-d]pyrimidin-4-yl)methanone [Example Z433] | – | – | 100 to 500 | 0.22 | > 500 |
